The nature of experiment [1]: Inhibition of Candida albicans ATCC 10231 secreted aspartic protease.
Experiment [2] can be described thus: Inhibition of pepsin.

Each structure is given as a SMILES string.

As a reminder, the IC50 is the concentration that inhibits the measured activity by half. A low value points to inhibition by little substance. In the case of `CC(C)CC(=O)N[C@H](C(=O)N[C@H](C(=O)N[C@@H](CC(C)C)[C@@H](O)CC(=O)N[C@@H](C)C(=O)N[C@@H](CC(C)C)[C@@H](O)CC(=O)O)C(C)C)C(C)C` [PEPSTATIN], the IC50 came to 0.016 µM in experiment [1] and 0.31 µM in experiment [2].

For `COc1ccc([C@@H]2CC(=O)c3c(O)c(C)c(O[C@@H]4O[C@@H]5COC(=O)c6cc(O)c(O)c(O)c6-c6c(cc(O)c(O)c6O)C(=O)O[C@H]5[C@H](O)[C@H]4O)c(C)c3O2)cc1`, the concentration for half-maximal inhibition (IC50) in experiment [1] amounted to 8.4 µM; in experiment [2], 66.6 µM.

With `O=c1oc2c(O)c(O)cc3c(=O)oc4c(O)c(O)cc1c4c23` [ELLAGIC ACID], the IC50 in experiment [1] turned out to be 10.5 µM; in experiment [2] it was 37.1 µM.
